Columns and labels:
[1] = test system: Staphylococcus aureus; test: Photodynamic antibacterial activity against Staphylococcus aureus NRS11 assessed as log reduction in viable cells at 10 uM preincubated for 20 mins followed by 180 J/cm2 irradiation for 60 mins by fluorescence microscopy; assay type: functional
[2] = test system: Escherichia coli; test: Photodynamic antibacterial activity against Escherichia coli DH5alpha assessed as log reduction in viable cells 10 uM preincubated for 20 mins followed by 180 J/cm2 irradiation for 60 mins by fluorescence microscopy; assay type: functional, DH5[alpha]
[3] = test system: Klebsiella pneumoniae; test: Photodynamic antibacterial activity against Klebsiella pneumoniae subsp. pneumoniae ATCC 33495 assessed as log reduction in viable cells at 10 uM preincubated for 20 mins followed by 180 J/cm2 irradiation for 60 mins by fluorescence microscopy; assay type: functional
[4] = test system: Bacillus thuringiensis; test: Photodynamic antibacterial activity against Bacillus thuringiensis NRS 1124 ATCC 19268 assessed as log reduction in viable cells at 10 uM preincubated for 20 mins followed by 180 J/cm2 irradiation for 60 mins by fluorescence microscopy; assay type: functional
[5] = test system: Escherichia coli; test: Photodynamic antibacterial activity against ROS-induced stressed Escherichia coli ATCC 25922 assessed as log reduction in viable cells at 10 uM preincubated for 30 mins followed by 3.6 J/cm2 irradiation for 1 hr mins by fluorescence microscopy; assay type: functional
[6] = test system: Escherichia coli; test: Photodynamic antibacterial activity against ROS-induced stressed Escherichia coli ATCC 25922 assessed as log reduction in viable cells at 10 uM preincubated for 1 hr followed by 9.36 J/cm2 irradiation for 2 hrs mins by fluorescence microscopy; assay type: functional
[7] = test system: Staphylococcus aureus; test: Photodynamic antibacterial activity against Staphylococcus aureus ATCC 25923 assessed as log reduction in viable cells at 1 uM preincubated for 30 mins followed by immediate irradiation at 21 J/cm2 in presence of 50 mM KI by fluorescence microscopy; assay type: functional
[8] = test system: Candida albicans; test: Photodynamic antibacterial activity against Candida albicans PC31 assessed as log reduction in viable cells at 5 uM preincubated for 30 mins followed by immediate irradiation at 126 J/cm2 in presence of 50 mM KI by fluorescence microscopy; assay type: functional
[9] = test system: Escherichia coli; test: Photodynamic antibacterial activity against Escherichia coli EC7 assessed as log reduction in viable cells at 5 uM preincubated for 30 mins followed by immediate irradiation at 63 J/cm2 in presence of 50 mM KI by fluorescence microscopy; assay type: functional
[10] = test system: Pseudomonas aeruginosa; test: Photodynamic antibacterial activity against Pseudomonas aeruginosa PAO1 assessed as log reduction in viable cells at 2.5 uM preincubated for 30 mins followed by 171 J/cm'2 irradiation for 1 hr by confocal laser scanning microscopy; assay type: functional
[11] = test system: Vesicular stomatitis virus; test: Photodynamic antiviral activity against vesicular stomatitis virus NJ infected in African green monkey Vero cells assessed as log reduction in viable cells at 0.5 uM in presence of 118 J/cm2 irradiation; assay type: functional, Vesicular stomatitis New Jersey virus
[12] = test system: Human adenovirus 5; test: Photodynamic antiviral activity against Human adenovirus 5 infected in African green monkey Vero cells assessed as log reduction in viable cells at 5 uM in presence of 118 J/cm2 irradiation; assay type: functional
[13] = test system: dengue virus type 1; test: Photodynamic antiviral activity against Dengue virus 1 infected in African green monkey Vero cells assessed as log reduction in viable cells at 0.1 uM in presence of 118 J/cm2 irradiation; assay type: functional
[14] = test system: Cryptococcus neoformans; test: Photodynamic antifungal activity against Cryptococcus neoformans ATCC 6453 assessed as log reduction in viable cells at 0.5 uM in presence of 118 J/cm2 irradiation; assay type: functional
[15] = test system: Mycolicibacterium smegmatis; test: Photodynamic antibacterial activity against Mycobacterium smegmatis MC2 155 assessed as log reduction in viable cells at 0.5 uM in presence of 118 J/cm2 irradiation; assay type: functional, str. MC2 155
[16] = test system: Candida albicans; test: Photodynamic antifungal activity against Candida albicans ATCC 90028 assessed as log reduction in viable cells at 1 uM in presence of 118 J/cm2 irradiation; assay type: functional
[17] = test system: Nakaseomyces glabratus; test: Photodynamic antifungal activity against Candida glabrata ATCC 15545 assessed as log reduction in viable cells at 1 uM in presence of 118 J/cm2 irradiation; assay type: functional

SMILES: CC1=C(I)C(C)=[N+]2C1C(c1cc(CN(Cc3ccccn3)Cc3ccccn3)cc(CN(Cc3ccccn3)Cc3ccccn3)c1)c1c(C)c(I)c(C)n1[B-]2(F)F (configuration not stated)
- log(activity) [1]: 4.5
- log(activity) [2]: 3.5
- log(activity) [3]: 2.2
- log(activity) [4]: 4.5

SMILES: CC(=O)OCC1c2c(C)c(I)c(C)n2[B-](F)(F)[N+]2=C(C)C(I)=C(C)C12 (configuration not stated)
- log(activity) [5]: 5.5

SMILES: CC1=C(Br)C(C)=[N+]2C1C(CC1(C)CCc3c(C)c(O)c(C)c(C)c3O1)c1c(C)c(Br)c(C)n1[B-]2(F)F (configuration not stated)
- log(activity) [6]: 5.5

SMILES: CC1=C(C)C2(OO)OC(C)(CC3c4c(C)c(Br)c(C)n4[B-](F)(F)[N+]4=C(C)C(Br)=C(C)C34)CCC2=C(C)C1=O (configuration not stated)
- log(activity) [6]: 5.5

SMILES: CC1=CC(C)=[N+]2C1C(c1ccc(OCCC[N+](C)(C)C)cc1)c1c(C)cc(C)n1[B-]2(F)F (configuration not stated)
- log(activity) [7]: 4.5
- log(activity) [8]: 3.5
- log(activity) [9]: 6.5

SMILES: CC1=CC(C)=[N+]2C1C(c1ccc([N+](C)(C)C)cc1)c1c(C)cc(C)n1[B-]2(F)F (configuration not stated)
- log(activity) [7]: 5
- log(activity) [8]: 5.5
- log(activity) [9]: 3.5

SMILES: CC(=O)OCC1c2c(C)c(Br)c(C)n2[B-](F)(F)[N+]2=C(C)C(Br)=C(C)C12 (configuration not stated)
- log(activity) [5]: 5.5

SMILES: CC1=C(I)C(C)=[N+]2C1C(c1cc[n+](C)cc1)c1c(C)c(I)c(C)n1[B-]2(F)F (configuration not stated)
- log(activity) [10]: 7
- log(activity) [11]: 5
- log(activity) [12]: 2
- log(activity) [13]: 6
- log(activity) [14]: 5
- log(activity) [15]: 3
- log(activity) [16]: 5
- log(activity) [17]: 3
